Laboratory results: BindingDB's records for doi:10.1016/j.chembiol.2003.08.010 (Brigham and Women's Hospital, 2003)
pIC50: −log10 of the molar value.

What was measured:
[1] = biological target: T1, Ubiquitin carboxyl-terminal hydrolase isozyme L1 (Mus musculus, UniProt Q9R0P9); test: Inhibition Activity Assay; details: pH 7.6; 25 °C
T1 sequence (Q9R0P9 whole entry): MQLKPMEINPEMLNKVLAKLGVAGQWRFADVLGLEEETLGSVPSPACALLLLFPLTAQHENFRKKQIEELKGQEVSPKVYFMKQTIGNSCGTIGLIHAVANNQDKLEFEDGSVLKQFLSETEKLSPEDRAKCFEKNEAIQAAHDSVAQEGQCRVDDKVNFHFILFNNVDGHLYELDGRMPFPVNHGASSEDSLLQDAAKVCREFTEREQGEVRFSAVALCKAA
Excerpt: (§1) Inhibition activity and selectivity for UCH-L1 and UCH-L3.

[2] = biological target: T2, Ubiquitin carboxyl-terminal hydrolase isozyme L3 (Mus musculus, UniProt Q9JKB1); test: Inhibition Activity Assay; details: pH 7.6; 25 °C
T2 sequence (Q9JKB1 whole entry): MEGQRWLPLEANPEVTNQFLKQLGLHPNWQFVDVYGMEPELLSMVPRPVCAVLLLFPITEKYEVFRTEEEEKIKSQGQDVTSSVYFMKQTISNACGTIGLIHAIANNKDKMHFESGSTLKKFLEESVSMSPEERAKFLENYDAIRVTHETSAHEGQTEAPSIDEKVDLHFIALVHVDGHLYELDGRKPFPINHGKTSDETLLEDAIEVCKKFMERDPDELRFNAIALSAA
Excerpt: as §1

| pIC50 [1] | pIC50 [2] | Compound |
| --- | --- | --- |
| 4.57 | 4.32 | COc1ccc(NC(=O)c2[nH]cnc2C(=O)N[C@@H](CC(C)C)C(=O)OC(C)(C)C)cc1 [(2S)-2-[[4-[(4-methoxyphenyl)carbamoyl]-1H-imidazole-5-carbonyl]amino]-4-methyl-valeric acid tert-butyl ester] |
| 4.72 | 4.24 | CC(C)(C)OC(=O)NCCCC[C@H](NC(=O)c1[nH]cnc1C(=O)Nc1ccc(Cl)cc1)C(=O)OC(C)(C)C [(2S)-2-[[[4-[(4-chloroanilino)-oxomethyl]-1H-imidazol-5-yl]-oxomethyl]amino]-6-[[(2-methylpropan-2-yl)oxy-oxomethyl]amino]hexanoic acid tert-butyl ester] |
| 5.47 | 4.14 | CCC1=NN(C(=O)c2ccccc2O)C(O)(c2ccccc2)C1 (stereo not drawn) [(3-ethyl-5-hydroxy-5-phenyl-4H-pyrazol-1-yl)-(2-hydroxyphenyl)methanone] |
| 5.47 | 4.33 | Oc1ccc(Oc2ccc(Oc3ccc(O)cc3)cc2)cc1 [MLS001162917] |
| 5.59 | 4.80 | Cc1nc(N=NC(C)c2ccc(Br)cc2)cc(N2CCCCC2)n1 (stereo not drawn) [N-[1-(4-bromophenyl)ethylideneamino]-2-methyl-6-piperidin-1-ylpyrimidin-4-amine] |
| 5.89 | 4.66 | COc1ccc(N(CC(=O)NCCSCc2cccc(Cl)c2)S(C)(=O)=O)cc1Cl [N-[2-[(3-chlorobenzyl)thio]ethyl]-2-(3-chloro-N-mesyl-4-methoxy-anilino)acetamide] |
| 4.80 | 4.62 | CC(C)(C)OC(=O)[C@H](Cc1ccccc1)NC(=O)c1[nH]cnc1C(=O)Nc1ccc(Cl)cc1 [SMR000465882] |
| 3.54 | 4.15 | CC1=CC(=O)c2ccccc2C1=O [Vitamin K3] |
| 4.92 | 4.48 | Cc1cccc(NC(=O)c2nc[nH]c2C(=O)N[C@@H](CC(C)C)C(=O)OCc2ccccc2)c1 [benzyl (2S)-4-methyl-2-[[4-[(3-methylphenyl)carbamoyl]-1H-imidazole-5-carbonyl]amino]pentanoate] |
| 5.74 | 4.40 | CCOC(=O)C1=C(C)N=c2s/c(=C\c3ccc(O)c([N+](=O)[O-])c3)c(=O)n2C1c1ccccc1OC (stereo not drawn) [ethyl 2-[(4-hydroxy-3-nitrophenyl)methylidene]-5-(2-methoxyphenyl)-7-methyl-3-oxo-5H-[1,3]thiazolo[3,2-a]pyrimidine-6-carboxylate] |
| 4.92 | 4.28 | Cc1cccc(NC(=O)c2nc[nH]c2C(=O)N[C@@H](Cc2ccccc2)C(=O)OC(C)(C)C)c1 [tert-butyl (2S)-2-[[4-[(3-methylphenyl)carbamoyl]-1H-imidazole-5-carbonyl]amino]-3-phenylpropanoate] |

| Compound | pIC50 [1] | pIC50 [2] |
| --- | --- | --- |
| Cc1ccc(NC(=O)c2[nH]cnc2C(=O)N[C@@H](CCCCNC(=O)OC(C)(C)C)C(=O)OC(C)(C)C)cc1 [(2S)-6-(tert-butoxycarbonylamino)-2-[[4-(p-tolylcarbamoyl)-1H-imidazole-5-carbonyl]amino]hexanoic acid tert-butyl ester] | 5.22 | 4.49 |
| CCCCn1c(=O)c(C(=O)NCc2ccccc2Cl)c(O)c2ccccc21 [MLS001202596] | 4.77 | 4.39 |
| COc1ccc(-n2c(C=Cc3ccc(O)c(OC)c3)nc3ccccc3c2=O)cc1 [SMR000516541] | 4.92 | 4.28 |
